Assay: Clearance in rat at […], iv
Type: ADME, organism-based
Design: dose 0.58 mg/kg, route intravenous
Conditions: in vivo

clearance: 108 mL/min/kg
Compound: CC(C)(C)c1ccc(Nc2nc3ccc(C#N)cc3[nH]2)cc1
